Article PMC12184311 (2025)

Tests used:
[1] = test system: 4WJ-18 (DNA, junction) GCTAGCTGATACGCTACG/CGTAGCGTACGTTGGTGC/GCACCAACGCGTCACTCC/GGAGTGACGTCAGCTAGC; test: PAGE; conditions: Na+ 50 mM (NaCl); 1X TB, 37 °C 1 h incubation; 0.25 to 5 equiv; compound induces junction assembly
[2] = test system: 3WJ (DNA, junction) CGGAACGGCACTCG/CGAGTGCAGCGTGG/CCACGCTCGTTCCG; test: PAGE; conditions: Na+ 50 mM (NaCl), 1X TB, 37 °C 1 h incubation
[3] = test system: 4WJ-22 (DNA, junction) GCCTAGCATGATACTGCTACCG/CGGTAGCAGTACCGTTGGTGGC/GCCACCAACGGCGTCAACTGCC/GGCAGTTGACGTCATGCTAGGC; test: PAGE gel shift; conditions: Na+ 50 mM (NaCl); 1X TB
[4] = test system: FAM-labelled 4WJ-18 (DNA, junction) GCTAGCTGATACGCTACG/CGTAGCGTACGTTGGTGC/GCACCAACGCGTCACTCC/GGAGTGACGTCAGCTAGC; test: PAGE competition, FAM fluorescence; conditions: Na+ 50 mM (NaCl); 1X TB, 37 °C 1 h; 1 equivalent Pt-BIMA; competitor unlabelled 4WJ-18, Y fork, dsDNA, 3WJ

Row | SMILES | binding [1] | binding ([2]; 0.25 to 5 equiv) | binding [3] | binding [4] | binding ([2]; control lane)
1 | [Pd+2].[Pd+2].c1ccc2c(c1)ncn2Cc1c2ccccc2c(Cn2cnc3ccccc32)c2ccccc12.c1ccc2c(c1)ncn2Cc1c2ccccc2c(Cn2cnc3ccccc32)c2ccccc12.c1ccc2c(c1)ncn2Cc1c2ccccc2c(Cn2cnc3ccccc32)c2ccccc12.c1ccc2c(c1)ncn2Cc1c2ccccc2c(Cn2cnc3ccccc32)c2ccccc12 | yes | yes |  |  | 
2 | [Pt+2].[Pt+2].c1ccc2c(c1)ncn2Cc1c2ccccc2c(Cn2cnc3ccccc32)c2ccccc12.c1ccc2c(c1)ncn2Cc1c2ccccc2c(Cn2cnc3ccccc32)c2ccccc12.c1ccc2c(c1)ncn2Cc1c2ccccc2c(Cn2cnc3ccccc32)c2ccccc12.c1ccc2c(c1)ncn2Cc1c2ccccc2c(Cn2cnc3ccccc32)c2ccccc12 | yes | yes | yes | yes | 
3 | C(=Nc1ccc(Cc2ccc(N=Cc3ccccn3)cc2)cc1)c1ccccn1.C(=Nc1ccc(Cc2ccc(N=Cc3ccccn3)cc2)cc1)c1ccccn1.C(=Nc1ccc(Cc2ccc(N=Cc3ccccn3)cc2)cc1)c1ccccn1.[Ni+2].[Ni+2] |  |  |  |  | yes
